Entries after “also recorded” stand apart in the source; their conditions may differ. Where two headings read alike, the source gives them in different places.
Columns and labels:
[1] = LogD7.4 estimation by HPLC-based method; format: physicochemical; details: for logD7.4 (single determination): calculated from retention time with one calibration function (A–F)
Protocol: The logarithm of the capacity factors of the reference substances was then plotted against the corresponding logP values taken from the mentioned guideline to obtain a calibration function. For non‐ionizable compounds like the reference substances used for calibration, logP values can be considered equivalent to the logD 7.4 values. To obtain a reference mixture, 2 mg of the reference substances were each dissolved in 1 mL of methanol, and 50 μL aliquots of each reference solution were subsequently combined. The reference mixture was measured before and after the substances to be tested, and the mean retention time from both measurements was used to calculate the calibration function. The calibration function was then used to determine the logD 7.4 values from the corresponding retention times for each substance to be tested. The compounds of interest were injected as a solution in methanol (2 mg/mL), and the retention time was determined as the mean value from two measurements.

[2] = Cyclic voltammetry, anodic peak potential (oxidizability); format: physicochemical; details: 0.1 M Tris‐HCl buffer pH 7.4, −0.5 to 1.0 V, sweep rate 0.1 V/s, –[b] = no oxidation observed in the specified potential range
[3] = system: TAMH mouse liver cell line
[4] = system: HEP‐G2 human hepatoma cell line
KV7.2/3 channel = KV7.2/3 channel (Homo sapiens, UniProt O43525+O43526); experiment: KV7.2/3 channel opening activity, thallium-flux FLIPR Potassium Assay in HEK-293 cells overexpressing KV7.2/3; parameters: Emax: dose or concentration left out as unconfirmed; details: for Emax: HEK293E, read-out: Efficacy
Sequence of KV7.2/3 channel (O43525 whole entry): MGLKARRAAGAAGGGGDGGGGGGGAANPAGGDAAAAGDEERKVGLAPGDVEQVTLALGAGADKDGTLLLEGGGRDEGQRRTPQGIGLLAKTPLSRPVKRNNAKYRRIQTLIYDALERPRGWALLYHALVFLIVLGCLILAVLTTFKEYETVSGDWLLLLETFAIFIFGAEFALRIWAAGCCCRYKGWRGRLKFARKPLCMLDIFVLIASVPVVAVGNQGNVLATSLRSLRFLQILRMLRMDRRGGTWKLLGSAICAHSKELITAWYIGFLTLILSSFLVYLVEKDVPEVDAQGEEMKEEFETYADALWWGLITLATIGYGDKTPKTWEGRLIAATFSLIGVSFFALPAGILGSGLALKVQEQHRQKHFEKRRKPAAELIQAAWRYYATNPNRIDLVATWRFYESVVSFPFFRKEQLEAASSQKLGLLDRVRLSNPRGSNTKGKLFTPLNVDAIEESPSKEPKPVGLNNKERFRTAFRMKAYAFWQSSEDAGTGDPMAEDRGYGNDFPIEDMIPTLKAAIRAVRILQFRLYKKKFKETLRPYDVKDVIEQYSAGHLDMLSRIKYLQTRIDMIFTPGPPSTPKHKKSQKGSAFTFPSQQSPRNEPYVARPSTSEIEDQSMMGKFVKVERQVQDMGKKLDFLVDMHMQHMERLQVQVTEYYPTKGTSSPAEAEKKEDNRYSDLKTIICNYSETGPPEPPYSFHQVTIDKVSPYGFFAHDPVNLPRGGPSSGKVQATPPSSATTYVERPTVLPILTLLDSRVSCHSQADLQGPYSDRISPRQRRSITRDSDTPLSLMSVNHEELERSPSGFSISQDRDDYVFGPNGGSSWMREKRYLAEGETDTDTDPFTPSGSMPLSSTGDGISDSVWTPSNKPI
Sequence of KV7.2/3 channel (O43526 whole entry): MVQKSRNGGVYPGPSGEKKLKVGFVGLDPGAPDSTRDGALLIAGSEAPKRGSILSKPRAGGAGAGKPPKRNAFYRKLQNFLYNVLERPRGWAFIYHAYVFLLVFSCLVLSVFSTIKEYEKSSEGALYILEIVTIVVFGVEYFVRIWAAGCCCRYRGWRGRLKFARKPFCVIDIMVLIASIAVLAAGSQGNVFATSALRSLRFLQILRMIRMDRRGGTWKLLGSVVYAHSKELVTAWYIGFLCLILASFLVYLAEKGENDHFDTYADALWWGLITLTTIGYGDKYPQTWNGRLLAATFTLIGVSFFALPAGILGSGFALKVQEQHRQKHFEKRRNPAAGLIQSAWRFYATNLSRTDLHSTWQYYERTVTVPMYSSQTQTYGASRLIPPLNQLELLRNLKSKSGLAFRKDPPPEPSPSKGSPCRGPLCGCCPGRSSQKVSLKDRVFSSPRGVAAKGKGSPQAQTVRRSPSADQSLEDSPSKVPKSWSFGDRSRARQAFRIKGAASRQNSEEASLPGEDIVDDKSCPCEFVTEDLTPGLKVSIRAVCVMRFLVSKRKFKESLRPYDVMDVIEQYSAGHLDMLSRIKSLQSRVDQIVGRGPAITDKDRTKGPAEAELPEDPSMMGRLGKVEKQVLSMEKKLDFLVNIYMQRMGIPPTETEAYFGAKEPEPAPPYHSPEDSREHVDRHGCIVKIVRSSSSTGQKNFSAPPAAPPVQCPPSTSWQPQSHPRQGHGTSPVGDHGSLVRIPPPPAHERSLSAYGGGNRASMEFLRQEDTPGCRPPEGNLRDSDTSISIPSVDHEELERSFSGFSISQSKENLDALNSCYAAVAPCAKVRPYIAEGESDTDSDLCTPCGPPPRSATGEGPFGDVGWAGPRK

[5] = pH 7.4, calculated from retention time with one calibration function (A–F), Table S7, read-out: logD7.4 (single determination)
[6] = pH 7.4, estimated by HPLC-based method, pH 7.4, read-out: LogD 7.4
[7] = HEK‐293 cells overexpressing KV7.2/3
[8] = KV7.2/3 opening, ratio of EC50 values
[9] = HEP‐G2, MTT assay, 24 h exposure

In the case of `CCCC(=O)Nc1c(C)cc(CNc2ccc(F)cc2)cc1C` [35 a, N ‐(4‐{[(4‐Fluorophenyl)amino]methyl}‐2,6‐dimethylphenyl)butyramide], the “logD7.4 (single determination)” value ([1]; Table S7) is reported as 3.023, the chromatographic logD [1, 5] is reported as 3.04 and the chromatographic logD [1, 6] is reported as 3. For the same molecule, the “Ep.a. (anodic peak potential)” value [2] was 633 mV, the “LD50 (concentration to reduce cell viability by 50 %)” value ([3]; mouse, 24 h) was >125 µM and the “LD50 (concentration to reduce cell viability by 50 %)” value ([4]; human, 24 h) was >125 µM. The EC50 (KV7.2/3 channel) was 143 ± 20 nM, the Emax (KV7.2/3 channel) was 143 ± 7% and the “KV7.2/3 opening activity (in words)” value (KV7.2/3 channel; [7]) was “submicromolar activity”. The “fold increase in potency compared to 35 b” value (KV7.2/3 channel; [8]) was 4.7 fold.

In the case of `CCCC(=O)Nc1ccc(CNc2ccc(F)cc2)cc1C` [35 b, N ‐(4‐{[(4‐Fluorophenyl)amino]methyl}‐2‐methylphenyl)butyramide], the “logD7.4 (single determination)” value ([1]; Table S7) is reported as 2.870, the chromatographic logD [1, 5] is reported as 2.88 and the chromatographic logD [1, 6] is reported as 2.9. For the same molecule, the “Ep.a. (anodic peak potential)” value [2] was 618 mV, the “LD25 (concentration to reduce cell viability by 25 %)” value ([3]; mouse, 24 h) was >125 µM and the “LD50 (concentration to reduce cell viability by 50 %)” value ([3]; mouse, 24 h) was >125 µM. For the same molecule, the “LD25 (concentration to reduce cell viability by 25 %)” value ([4]; human, 24 h) was 88 ± 9 µM, the “LD50 (concentration to reduce cell viability by 50 %)” value ([4]; human, 24 h) was >125 µM and the EC50 (KV7.2/3 channel) was 675 ± 276 nM. It also gave an Emax (KV7.2/3 channel) of 176 ± 14%.

With `CCCC(=O)Nc1ccc(CNc2ccc(F)cc2)cc1F` [35 c, N ‐(2‐Fluoro‐4‐{[(4‐fluorophenyl)amino]methyl}phenyl)butyramide] the “logD7.4 (single determination)” value ([1]; Table S7) was 2.980, the chromatographic logD [1, 5] was 2.96 and the chromatographic logD [1, 6] was 3. The “Ep.a. (anodic peak potential)” value [2] was 643 mV, the “LD25 (concentration to reduce cell viability by 25 %)” value ([3]; mouse, 24 h) was >63 µM and the “LD50 (concentration to reduce cell viability by 50 %)” value ([3]; mouse, 24 h) was >63 µM. The “LD25 (concentration to reduce cell viability by 25 %)” value ([4]; human, 24 h) was >63 µM, the “LD50 (concentration to reduce cell viability by 50 %)” value ([4]; human, 24 h) was >63 µM and the EC50 (KV7.2/3 channel) was 1510 ± 364 nM. For the same molecule, the Emax (KV7.2/3 channel) was 167 ± 16%.

In the case of `CCCC(=O)Nc1ccc(CNc2ccc(F)cc2)cc1C(F)(F)F.Cl` [35 d, N ‐(4‐{[(4‐Fluorophenyl)amino]methyl}‐2‐(trifluoromethyl)phenyl)butyramide hydrochloride], the “logD7.4 (single determination)” value ([1]; Table S7) is reported as 2.991, the chromatographic logD [1, 5] is reported as 3 and the chromatographic logD [1, 6] is reported as 3. For the same molecule, the “Ep.a. (anodic peak potential)” value [2] was 663 mV, the “LD25 (concentration to reduce cell viability by 25 %)” value ([3]; mouse, 24 h) was >125 µM and the “LD50 (concentration to reduce cell viability by 50 %)” value ([3]; mouse, 24 h) was >125 µM. For the same molecule, the “LD25 (concentration to reduce cell viability by 25 %)” value ([4]; human, 24 h) was 75 ± 17 µM, the “LD50 (concentration to reduce cell viability by 50 %)” value ([4]; human, 24 h) was >125 µM and the EC50 (KV7.2/3 channel) was 362 ± 93 nM. The Emax (KV7.2/3 channel) was 156 ± 14%.

In the case of `Cc1cc(CNc2ccc(F)cc2F)ccc1NC(=O)c1cccnc1` [35 e, N ‐(4‐{[(2,4‐Difluorophenyl)amino]methyl}‐2‐methylphenyl)nicotinamide], the “logD7.4 (single determination)” value ([1]; Table S7) is reported as 2.952, the chromatographic logD [1, 5] is reported as 2.97 and the chromatographic logD [1, 6] is reported as 3. For the same molecule, the “Ep.a. (anodic peak potential)” value [2] was “no anodic peak potential could be determined; also recorded: –^[b]”, the “LD25 (concentration to reduce cell viability by 25 %)” value ([3]; mouse, 24 h) was 41 ± 11 µM and the “LD50 (concentration to reduce cell viability by 50 %)” value ([3]; mouse, 24 h) was >125 µM. The “LD25 (concentration to reduce cell viability by 25 %)” value ([4]; human, 24 h) was 61 ± 7 µM, the “LD50 (concentration to reduce cell viability by 50 %)” value ([4]; human, 24 h) was 107 ± 16 µM and the “KV7.2/3 opening activity (in words)” value (KV7.2/3 channel; [7]) was “inactive”. For the same molecule, the “EC50 (required concentration to reach half‐maximal KV7.2/3 channel opening activity)” value (KV7.2/3 channel; HEK‐293 cells overexpressing KV7.2/3, mean ± SD, at least three determinations, –[e] = inactive up to a concentration of 20 μM) was “–^[e]” and the Efficacy (KV7.2/3 channel; maximal fluorescence signal relative to flupirtine (100 %), HEK‐293, –[e] = inactive up to a concentration of 20 μM) was “–^[e]”.

For `CCCC(=O)Nc1ccc(CNc2ccc(C)cn2)cc1C` [35 f, N ‐(2‐Methyl‐4‐{[(5‐methylpyridin‐2‐yl)amino]methyl}phenyl)butyramide], the “logD7.4 (single determination)” value ([1]; Table S7) was 2.263, the chromatographic logD [1, 5] was 2.29 and the chromatographic logD [1, 6] was 2.3. The “Ep.a. (anodic peak potential)” value [2] was 850 mV, the “LD25 (concentration to reduce cell viability by 25 %)” value ([3]; mouse, 24 h) was >125 µM and the “LD50 (concentration to reduce cell viability by 50 %)” value ([3]; mouse, 24 h) was >125 µM. The “LD25 (concentration to reduce cell viability by 25 %)” value ([4]; human, 24 h) was >125 µM, the “LD50 (concentration to reduce cell viability by 50 %)” value ([4]; human, 24 h) was >125 µM and the EC50 (KV7.2/3 channel) was 7860 ± 2170 nM. For the same molecule, the Emax (KV7.2/3 channel) was 70 ± 9% and the “KV7.2/3 opening activity (in words)” value (KV7.2/3 channel; [7]) was “weakly active”.

With `CCCC(=O)Nc1ncc(CNc2ccc(F)cc2)cc1Br` [42 a, N ‐(3‐Bromo‐5‐{[(4‐fluorophenyl)amino]methyl}pyridin‐2‐yl)butyramide] the “logD7.4 (single determination)” value ([1]; Table S7) was 2.714, the chromatographic logD [1, 5] was 2.71 and the chromatographic logD [1, 6] was 2.7. For the same molecule, the “Ep.a. (anodic peak potential)” value [2] was 668 mV, the “LD25 (concentration to reduce cell viability by 25 %)” value ([3]; mouse, 24 h) was >63 µM and the “LD50 (concentration to reduce cell viability by 50 %)” value ([3]; mouse, 24 h) was >63 µM. For the same molecule, the “LD25 (concentration to reduce cell viability by 25 %)” value ([4]; human, 24 h) was >63 µM, the “LD50 (concentration to reduce cell viability by 50 %)” value ([4]; human, 24 h) was >63 µM and the EC50 (KV7.2/3 channel) was 5450 ± 1700 nM. It also gave an Emax (KV7.2/3 channel) of 163 ± 23%.

For `CCCC(=O)Nc1ncc(CNc2ccc(F)cc2)cc1C` [43 a, N ‐(5‐{[(4‐Fluorophenyl)amino]methyl}‐3‐methylpyridin‐2‐yl)butyramide], the “logD7.4 (single determination)” value ([1]; Table S7) was 2.341, the chromatographic logD [1, 5] was 2.33 and the chromatographic logD [1, 6] was 2.3. The “Ep.a. (anodic peak potential)” value [2] was 678 mV, the “LD25 (concentration to reduce cell viability by 25 %)” value ([3]; mouse, 24 h) was 110 ± 54 µM and the “LD50 (concentration to reduce cell viability by 50 %)” value ([3]; mouse, 24 h) was >125 µM. The “LD25 (concentration to reduce cell viability by 25 %)” value ([4]; human, 24 h) was 46 ± 24 µM, the “LD50 (concentration to reduce cell viability by 50 %)” value ([4]; human, 24 h) was >125 µM and the EC50 (KV7.2/3 channel) was 4840 ± 2910 nM. It also gave an Emax (KV7.2/3 channel) of 89 ± 32%.

In the case of `Cc1cc(CNc2ccc(F)cc2)cnc1NC(=O)CC(C)(C)C` [43 b, N ‐(5‐{[(4‐Fluorophenyl)amino]methyl}‐3‐methylpyridin‐2‐yl)‐3,3‐dimethylbutanamide], the “logD7.4 (single determination)” value ([1]; Table S7) is reported as 3.039, the chromatographic logD [1, 5] is reported as 3.03 and the chromatographic logD [1, 6] is reported as 3. The “Ep.a. (anodic peak potential)” value [2] was 663 mV, the “LD25 (concentration to reduce cell viability by 25 %)” value ([3]; mouse, 24 h) was >125 µM and the “LD50 (concentration to reduce cell viability by 50 %)” value ([3]; mouse, 24 h) was >125 µM. The “LD25 (concentration to reduce cell viability by 25 %)” value ([4]; human, 24 h) was 66 ± 27 µM, the “LD50 (concentration to reduce cell viability by 50 %)” value ([4]; human, 24 h) was >125 µM and the EC50 (KV7.2/3 channel) was 677 ± 419 nM. For the same molecule, the Emax (KV7.2/3 channel) was 153 ± 12%, the “KV7.2/3 opening activity (in words)” value (KV7.2/3 channel; [7]) was “submicromolar activity” and the “fold increase in potency compared to 43 a” value (KV7.2/3 channel; [8]) was 7.2 fold.

For `CCCC(=O)Nc1ncc(CNc2ccc(F)cc2)cc1C1CC1` [43 c, N ‐(3‐Cyclopropyl‐5‐{[(4‐fluorophenyl)amino]methyl}pyridin‐2‐yl)butyramide], the “logD7.4 (single determination)” value ([1]; Table S7) was 2.772, the chromatographic logD [1, 5] was 2.77 and the chromatographic logD [1, 6] was 2.8. The “Ep.a. (anodic peak potential)” value [2] was 678 mV, the “LD25 (concentration to reduce cell viability by 25 %)” value ([3]; mouse, 24 h) was 76 ± 52 µM and the “LD50 (concentration to reduce cell viability by 50 %)” value ([3]; mouse, 24 h) was >125 µM. For the same molecule, the “LD25 (concentration to reduce cell viability by 25 %)” value ([4]; human, 24 h) was 55 ± 17 µM, the “LD50 (concentration to reduce cell viability by 50 %)” value ([4]; human, 24 h) was >125 µM and the EC50 (KV7.2/3 channel) was 2020 ± 1200 nM. For the same molecule, the Emax (KV7.2/3 channel) was 138 ± 20%, the “fold increase in potency compared to 43 a” value (KV7.2/3 channel; [8]) was 2.4 fold and the “increase in efficiency compared to 43 a” value (KV7.2/3 channel; difference of efficacy values) was 49%.

With `CCOC(=O)Nc1ccc(NCc2ccc(F)cc2)cc1N` [Ret, retigabine] the “Ep.a. (anodic peak potential)” value [2] was 260 mV, the “LD25 (concentration to reduce cell viability by 25 %)” value ([3]; TAMH, MTT assay, 24 h exposure) was >400 µM and the “LD50 (concentration to reduce cell viability by 50 %)” value ([3]; TAMH, MTT assay, 24 h exposure) was >400 µM. For the same molecule, the “LD50 (concentration to reduce cell viability by 50 %)” value ([3]; TAMH, MTT assay, 24 h exposure, listed as retigabine) was “above 400 μM”, the “LD25 (concentration to reduce cell viability by 25 %)” value [4, 9] was 269 ± 166 µM and the “LD50 (concentration to reduce cell viability by 50 %)” value [4, 9] was >400 µM. The “LD50 (concentration to reduce cell viability by 50 %)” value ([4]; HEP‐G2, MTT assay, 24 h exposure, listed as retigabine) was “above 400 μM”, the EC50 (KV7.2/3 channel) was 249 ± 52 nM and the Emax (KV7.2/3 channel) was 119 ± 7%. The “fold increase in potency compared to flupirtine” value (KV7.2/3 channel; [8]) was 7 fold.
